In patent publication US7390836B2, “Small molecules used to increase cell death” (priority 1999, dated 2008):
Like-named read-outs stand apart in the source and are kept apart here. Peptide text beside a SMILES is read from it. * marks the point of attachment. Cbz = O=C(OCc1ccccc1)*; CH2F = FC*

Columns and labels:
[1] = target: T1, Bcl-xL (Homo sapiens, UniProt Q07817, DEL45-84); test: NMR titration of Bcl-xL; assay type: binding; conditions: rank order
T1 construct: His6 (C); made in house
Method: To verify this conclusion, NMR titrations of Bcl-xL with BH3I-1s were performed and their Ki values were determined (FIG. 4). […] The BH3I-1s Ki values obtained by the NMR approach agree with the results of both pulldown and SELDI analyses. Therefore, the order of affinities of BH3Is is: BH312′>BH3I-2>BH3I-2″>BH3I-1>BH3I-1′>BH3I-1″>BH3I-1′″.
NMR titration was used to examine whether BH3Iinteracts with the binding pocket of Bcl-xL in a manner similar to Bak BH3 peptide (Hajduk et al., Science 278:497-499, 1997).
Next, changes in Bcl-xL structure upon addition of increasing amounts of BH3Is were determined. Each of the BH3Is induced significant changes in the Bcl-xL structure. The compounds targeted the hydrophobic cleft formed by the BH1, BH2, and BH3 domains on the surface of the Bcl-xL protein, and primarily bound to the area formed by BH1 and BH2 domains.

[2] = system: HeLa cells; test: Cell death by ATP levels after zVAD-fmk pretreatment; assay type: cell-based; conditions: zVAD-fmk 100 μM pretreatment, 48 or 72 hours
Method: The conditions under which cell death occurs in the presence of BH3Is were further evaluated. HeLa cells were pretreated with zVAD-fmk (100 μM) for 1 hour. The purpose of such a treatment was to inhibit the intracellular pathways mediating cell death by apoptosis. Each of the chemical compounds BH3I-1, BH3I-1′, or BH3I-2 was then added to the media of the cells of three separate samples. After 48 or 72 hours of exposure of the cells to zVAD-fmk and the chemical compound, the level of cell death was measured for each sample, by measuring cellular ATP levels.

[3] = system: HeLa cells that stably overexpress human BCL-XL; test: Cell death by ATP levels in Bcl-xL overexpressing cells after zVAD-fmk pretreatment; assay type: cell-based; conditions: zVAD-fmk 100 μM pretreatment, 48 or 72 hours
Method: In another study, HeLa cells that stably overexpress human BCL-XL, and are therefore more resistant to cell death, were pretreated with zVAD-fmk (100 μM) for 1 hour, as described above. Each of the chemical compounds BH3I-1, BH3I-1′, and BH3I-2 from the ChemBridge library was then added to the media of the cells of three separate samples. After 48 or 72 hours of exposure of the cells to zVAD-fmk and the chemical compound, the level of cell death was measured for each sample, by measuring cellular ATP levels.

[4] = system: Bak BH3 peptide / Bcl-xL (Bcl-xL/GST, Bcl-xL-His6) interaction; test: Fluorescence polarization assay, labeled Bak BH3 peptide binding to Bcl-xL fusion protein; conditions: for order of affinities of BH3Is: overall rank order from FP, NMR, pulldown and SELDI results; for order of decreasing affinity, fluorescence polarization assays: rank order
From the text: We have used a fluorescence polarization assay to screen a library of 16,000 chemical compounds (ChemBridge, San Diego, Calif.) to identify small molecules that inhibit the interaction between a peptide corresponding to the BH3 domain of a pro-apoptotic protein and a recombinant Bcl-xL/GST fusion protein. In this assay, an […] peptide corresponding to the BH3 domain of Bak was used. The Bak peptide was labeled with a fluorescent tag, such as OREGON GREEN. Upon binding of the tagged peptide to the Bcl-xL/GST fusion protein, the polarization of light emitted by the tagged peptide is altered. […] Conversely, in a sample in which a compound does inhibit the interaction between the Bak peptide and the Bcl-xL/GST fusion protein the polarization of light emitted by the peptide will not be altered.
A nineteen amino acid Bak peptide, corresponding to the BH3 domain of Bak, with the sequence […] (SEQ ID NO: 2) was labeled with the fluorophore OREGON GREEN according to the manufacturer's instructions (Molecular Probes, Eugene, Oreg.). In addition, a recombinant Bcl-xL/GST fusion protein was generated using conventional techniques known to those skilled in the fields of biochemistry and molecular biology. The interaction between the Bak peptide and the Bcl-xL/GST fusion protein was confirmed.
A screen of approximately 16,000 compounds from the ChemBridge chemical compound library was conducted to identify compounds that disrupt the interaction between the Bak peptide and the Bcl-xL/GST fusion protein. The ability of a compound to disrupt the interaction between the two polypeptides was assessed using a fluorescence polarization assay. The Bak peptide and Bcl-xL/GST fusion protein (15 nM each; dissolved in PBS) were first combined, and then the compound was added. Alternatively, the Bak peptide, Bcl-xL/GST fusion protein, and test compound (5 mg/ml; dissolved in 0.1-0.5 gl of DMSO) may be combined in any order. Normally the unbound Bak polypeptide results in polarization of approximately 40 mP units. Upon binding of the Bcl-xL/GST fusion protein, polarization increased to approximately 100-120 mP units.
In a preferred method, the fluorescence assay was carried out as follows. Bak BH3 peptide (Research Genetics) was labeled using NHS-OREGON GREEN (Molecular Probes) and purified by HPLC. For the initial screening assays, 33 nM of labeled BH3 peptide, 2 μM of GST-Bcl-xL protein, 0.1% bovine gamma globulin (BGG, Sigma) and 1 mM DTT mixed with PBS, pH 7.2 (Gibco) were added into 384 well black plates (Lab Systems) using MULTIDROP (Lab Systems). Small molecules (5 mg/ml in DMSO, ChemBridge) were transferred using plastic 384-pin arrays (Genetix). The plates were incubated for 1-2 hr at 25° C., and the fluorescence polarization assay values were determined using an Analyst plate reader (LJL Biosystems). Reactions containing 16.65 nM of labeled BH3 peptide and 4.2 μM of Bcl-xL-His6 fusion protein, which was previously utilized to characterize BH3/Bcl-xL binding (Sattler et al., Science 275:983-6, 1997) were used for the further fluorescence polarization analyses. Kd and Ki determination was performed as previously described using […] PRISM software package (GraphPad) (Dandliker et al., Methods Enzymol. 74:3-28,1981).
In a further screen, various concentrations of each of the above-identified compounds were evaluated for their potency. A serial dilution of each chemical compound was performed and the fluorescence polarization assay was repeated, as per the primary screen. As a result of the secondary screening, three compounds, chemical compound ID numbers 275805 (BH3I-1; FIG. 1), 282986 (BH3I-1′; FIG. 2), and 175362 (BH3I-2; FIG. 3), collectively termed “BH3Is,” were identified to disrupt the interaction between Bak and the BCL-xL/GST fusion protein. […] Additional homologues of the BH3I-1s (BH3I-1″ and BH3I-1′″) and BH3I-2 (BH3-2″ and BH3I-2″) were also analyzed in the study (FIG. 4). […]

[5] = system: Jurkat cells; test: Cytotoxicity by MTS assay and propidium iodide uptake; assay type: cell-based
Method: Since BH3Is induce apoptosis, their mode of action, for example, through disruption of BH3 domain interactions, was investigated next. If apoptosis induced by a BH3I is BH3-dependent, then cytotoxicity should correlate with the compound's ability to disrupt BH3 domain interactions in vitro. To examine this possibility, Jurkat cells were treated with the BH3 Is and the occurrence of cell death was assayed by the MTS assay and propidium iodide (PI) uptake (FIG. 7A). The cytotoxicity of BH3-Is followed the order of BH3I-2′>BH3I-2>BH3I-2″>BH3I-1>BH3I-1′>BH3I-1″>BH3I-1′″ which paralleled the order of their Ki values determined using in vitro Bcl-xL binding assays (FIGS. 7B and 7C). Similar data were obtained using a trypan blue exclusion assay.

[6] = system: HeLa cells, Jurkat cells; test: Caspase dependence of BH3I-induced cell death (zVAD-fmk); assay type: cell-based; conditions: Hoechst dye
Method: FIG. 10A is a graph showing the comparison of BH3Is and Bax induced cell death. HeLa cells were transfected with YFP-Bax and pEYFP-C 1 for 48 hr in the absence (open bars) or presence (closed bars) of 100 μM zVAD-fmk. YFP transfected cells were also treated with BH3I-1 (100 μM) or BH3I-2 (50 μM) for 48 hours. Cell viability was determined by propidium iodide (PI) staining and microscopic examination of PI/YFP positive cells. Numbers represent the percentage of PI positive cells in the YFP positive population. The values of standard deviation are also shown.
FIG. 10B is a graph showing the attenuation of BH3Is' cytotoxicities by the pan-caspase inhibitor zVAD-fmk. Jurkat cells were treated with BH3I-1 or BH3I-2 in the presence (open bars) or absence (closed bars) of 100 μM zVAD-fmk (Alexis) for 48 hr. Cell death was determined using an MTS assay. Numbers represent the percentages of cell death, normalized relative to a DMSO treated control, which was set at 100% viability. Standard deviation values are also shown.
FIG. 10C is a set of images of cells showing that nuclear fragmentation, but not cytochrome c release, induced by BH3Is, requires caspases. […]
FIG. 10D-1-10D-6 are a series of graphs showing DNA fragmentation analysis of Jurkat cells treated with BH3Is and zVAD-fmk. […] Samples were analyzed by FACS, and the percentage of subG1 DNA is shown for each sample. […]

[7] = MTS assay and PI uptake, rank order

T1 sequence (Q07817 with tags, fused parts or gaps DEL45-84 limits assumed): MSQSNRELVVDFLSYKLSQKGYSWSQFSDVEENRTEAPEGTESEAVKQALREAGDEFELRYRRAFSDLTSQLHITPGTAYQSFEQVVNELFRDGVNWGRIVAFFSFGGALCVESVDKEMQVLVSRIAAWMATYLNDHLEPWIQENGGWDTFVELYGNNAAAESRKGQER

Row | Compound | relative order of affinities, NMR titrations [1] | cellular ATP levels [2] | cellular ATP levels [3] | order of affinities of BH3Is [4] | order of decreasing affinity, fluorescence polarization assays [4] | order of cytotoxicity [5, 7] | order of cytotoxicity [5] | protection from BH3I-induced nuclear fragmentation [6]
1 | CC(C)C(C(=O)O)N1C(=O)/C(=C/c2ccc(Cl)cc2)SC1=S (stereo not shown) [BH3I-1′] | BH3I-1>BH3I-1′>BH3I-1″>BH3I-1′″ | cellular ATP levels decreased | cellular ATP levels decreased | BH312′>BH3I-2>BH3I-2″>BH3I-1>BH3I-1′>BH3I-1″>BH3I-1′″ | BH3I-1>BH3I-1′>BH3I-2′>BH3I-2>BH3I-2″>BH3I-1″ | BH3I-2′>BH3I-2>BH3I-2″>BH3I-1>BH3I-1′>BH3I-1″>BH3I-1′″ | – | –
2 | CC(C)C(C(=O)O)N1C(=O)/C(=C/c2ccc(N(C)C)cc2)SC1=S (stereo not shown) [BH3I-1′″] | BH3I-1>BH3I-1′>BH3I-1″>BH3I-1′″ | – | – | BH312′>BH3I-2>BH3I-2″>BH3I-1>BH3I-1′>BH3I-1″>BH3I-1′″ | – | – | BH3I-2′>BH3I-2>BH3I-2″>BH3I-1>BH3I-1′>BH3I-1″>BH3I-1′″ | –
3 | COC(=O)C[C@H](NC(=O)[C@H](C)NC(=O)[C@@H](NC(=O)OCc1ccccc1)C(C)C)C(=O)CF [zVAD-fmk] (Cbz-Val-Ala-Asp(OMe)-CH2F) | – | – | – | – | – | – | – | completely protected cells from BH3I-induced nuclear fragmentation
4 | O=C(Nc1cc(S(=O)(=O)c2ccc(Cl)cc2)ccc1Cl)c1cc(Cl)cc(I)c1O [BH3I-2′] | – | – | – | BH312′>BH3I-2>BH3I-2″>BH3I-1>BH3I-1′>BH3I-1″>BH3I-1′″ | BH3I-1>BH3I-1′>BH3I-2′>BH3I-2>BH3I-2″>BH3I-1″ | BH3I-2′>BH3I-2>BH3I-2″>BH3I-1>BH3I-1′>BH3I-1″>BH3I-1′″ | – | –
5 | O=C(Nc1cc(S(=O)(=O)c2ccc(Cl)cc2)ccc1Cl)c1cc(I)cc(I)c1O [BH3I-2″] | – | – | – | BH312′>BH3I-2>BH3I-2″>BH3I-1>BH3I-1′>BH3I-1″>BH3I-1′″ | BH3I-1>BH3I-1′>BH3I-2′>BH3I-2>BH3I-2″>BH3I-1″ | BH3I-2′>BH3I-2>BH3I-2″>BH3I-1>BH3I-1′>BH3I-1″>BH3I-1′″ | – | –
